Results taken from patent publication US6855512B2, “Methods for identifying inhibitors of cytochrome P450RAI” (Allergan, Inc., priority 2000, dated 2005).

Key:
RARα [1] = target: T1, RARα (Homo sapiens, UniProt P10276); assay: chimeric receptor transactivation assay, RARα; format: cell-based; settings: EC50 line of EC50/(EFFICACY)/Kd, read-out: RAR α EC50
T1 sequence (P10276 183-417 limits assumed): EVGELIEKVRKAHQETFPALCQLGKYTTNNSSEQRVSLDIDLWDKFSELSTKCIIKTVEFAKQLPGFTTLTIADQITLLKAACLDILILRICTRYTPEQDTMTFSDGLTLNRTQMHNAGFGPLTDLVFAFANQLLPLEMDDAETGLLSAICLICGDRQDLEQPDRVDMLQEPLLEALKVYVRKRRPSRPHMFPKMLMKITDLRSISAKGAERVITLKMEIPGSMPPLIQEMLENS
Excerpt: (§1) Assays described below measure the ability of a compound to bind to, and/or activate various retinoid receptor subtypes. When in these assays a compound binds to a given receptor subtype and activates the transcription of a reporter gene through that subtype, then the compound is considered an agonist of that receptor subtype. […] In the below described assays the ability of the compounds to bind to RARα, RARβ, RARγ, RXRα, RXRβ and RXRγ receptors, and the ability or inability of the compounds to activate transcription of a reporter gene through these receptor subtypes can be tested.
(§2) The results obtained in this assay are expressed in EC50 numbers, as they are also in the chimeric receptor transactivation assay. The results of ligand binding assay are expressed in Kd numbers.

RARα [2] = target: T2, RARα (Homo sapiens, UniProt P10276); assay: ligand binding assay, RARα; settings: Kd line of EC50/(EFFICACY)/Kd, K = thousand, read-out: RAR α Kd
T2 sequence (P10276 1-462): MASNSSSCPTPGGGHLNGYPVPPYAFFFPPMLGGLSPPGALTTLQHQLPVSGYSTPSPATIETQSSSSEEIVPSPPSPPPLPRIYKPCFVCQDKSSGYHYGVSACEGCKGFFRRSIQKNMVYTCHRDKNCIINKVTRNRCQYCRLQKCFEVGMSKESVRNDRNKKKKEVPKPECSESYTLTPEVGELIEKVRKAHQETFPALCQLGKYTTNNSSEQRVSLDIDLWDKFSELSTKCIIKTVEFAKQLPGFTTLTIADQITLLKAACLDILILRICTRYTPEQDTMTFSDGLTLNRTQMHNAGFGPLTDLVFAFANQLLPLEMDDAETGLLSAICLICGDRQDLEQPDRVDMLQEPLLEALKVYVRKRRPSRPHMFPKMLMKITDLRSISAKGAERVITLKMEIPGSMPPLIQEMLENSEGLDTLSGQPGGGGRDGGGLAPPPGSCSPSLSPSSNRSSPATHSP
Excerpt: as §1, §2

EC50 (RARα [1]): > 10000 nM | Kd (RARα [2]): 90 nM
Compound: CC1(C)CC(C)(C)c2cc(C#Cc3ccc(C(=O)O)cc3)ccc2O1 [Compound 201]
